# Experimental data taken from PubChem BioAssay AID256 (DTP/NCI, 2004).
# “And” between values parts separate entries of the source, which are not always exact repeats. Equal values may be shown once. Inconclusive results and toxic doses are left out.
# System: CD2F1 mice, L1210 leukemia ip, survival T/C
# Test: NCI In Vivo Anticancer Drug Screen. Data for tumor model L1210 Leukemia (intraperitoneal) in CD2F1 (CDF1) mice
# Conditions: higher = longer survival
# Outline: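 Tumor-bearing mice (transplanted tumor) were split into treated and vehicle control groups, and the measured endpoint of each treated group was divided by that of its vehicle controls.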
# [1] = endpoint: mean survival time, dose: 100.0 mg/kg/injection, schedule: Q01DX009 (ip), vehicle: saline with Tween-80
# [2] = endpoint: mean survival time, dose: 200.0 mg/kg/injection, schedule: Q01DX009 (ip), vehicle: saline with Tween-80
# [3] = endpoint: mean survival time, dose: 400.0 mg/kg/injection, schedule: Q01DX009 (ip), vehicle: saline with Tween-80
# [4] = endpoint: mean survival time, dose: 100.0 mg/kg/injection, schedule: Q01DX001 (ip), vehicle: saline with Tween-80
# [5] = endpoint: mean survival time, dose: 200.0 mg/kg/injection, schedule: Q01DX001 (ip), vehicle: saline with Tween-80
# [6] = endpoint: mean survival time, dose: 100.0 mg/kg/injection, schedule: Q04DX003 (ip), vehicle: saline
# [7] = endpoint: mean survival time, dose: 200.0 mg/kg/injection, schedule: Q04DX003 (ip), vehicle: saline
# [8] = endpoint: mean survival time, dose: 400.0 mg/kg/injection, schedule: Q04DX003 (ip), vehicle: saline
# [9] = endpoint: mean survival time, dose: 100.0 mg/kg/injection, schedule: Q04DX003 (ip), vehicle: saline with Tween-80
# [10] = endpoint: mean survival time, dose: 200.0 mg/kg/injection, schedule: Q04DX003 (ip), vehicle: saline with Tween-80
smiles,measurement,setting,value
CC(=O)OCC1OC(OC(C)=O)C(NC(=O)N(CCOCCCl)N=O)C(OC(C)=O)C1OC(C)=O (centres undefined),T/C,"endpoint: mean survival time, dose: 6.25 mg/kg/injection, schedule: Q01DX001 (ip), vehicle: distilled water + Tween-80",101 % of control
same,T/C,"endpoint: mean survival time, dose: 12.5 mg/kg/injection, schedule: Q01DX001 (ip), vehicle: distilled water + Tween-80",101 % of control
same,T/C,"endpoint: mean survival time, dose: 25.0 mg/kg/injection, schedule: Q01DX001 (ip), vehicle: distilled water + Tween-80",93 % of control
same,T/C,"endpoint: mean survival time, dose: 50.0 mg/kg/injection, schedule: Q01DX001 (ip), vehicle: distilled water + Tween-80",93 % of control
same,T/C,"endpoint: mean survival time, dose: 100.0 mg/kg/injection, schedule: Q01DX001 (ip), vehicle: distilled water + Tween-80",101 % of control
same,T/C,"endpoint: mean survival time, dose: 200.0 mg/kg/injection, schedule: Q01DX001 (ip), vehicle: distilled water + Tween-80",97 % of control
same,T/C,"endpoint: mean survival time, dose: 400.0 mg/kg/injection, schedule: Q01DX001 (ip), vehicle: distilled water + Tween-80",109 % of control
O=C(CC(O)(C(F)(F)F)C(F)(F)F)c1ccccc1Cl,T/C,[1],100 % of control
same,T/C,[2],115 % of control
same,T/C,[3],107 % of control
NSc1ccc([N+](=O)[O-])cc1,T/C,"endpoint: mean survival time, dose: 25.0 mg/kg/injection, schedule: Q01DX001 (ip), vehicle: other",270 % of control
same,T/C,"endpoint: mean survival time, dose: 50.0 mg/kg/injection, schedule: Q01DX001 (ip), vehicle: other",204 % of control
C1CSC(CC2SCCCS2)SC1,T/C,"endpoint: mean survival time, dose: 50.0 mg/kg/injection, schedule: Q01DX001 (ip), vehicle: saline with Tween-80",97 % of control
same,T/C,[4],94 % of control
same,T/C,[5],96 % of control
Nc1cc(S(=O)(=O)O)cc2ccc(S(=O)(=O)O)cc12,T/C,"endpoint: mean survival time, dose: 100.0 mg/kg/injection, schedule: Q01DX009 (ip), vehicle: saline",106 % of control
same,T/C,[6],96 % of control
same,T/C,"endpoint: mean survival time, dose: 200.0 mg/kg/injection, schedule: Q01DX009 (ip), vehicle: saline",95 % of control
same,T/C,[7],92 % of control
same,T/C,"endpoint: mean survival time, dose: 400.0 mg/kg/injection, schedule: Q01DX009 (ip), vehicle: saline",92 % of control
same,T/C,[8],117 % of control
O=C(COc1ccccc1)N/N=C/c1ccccc1O,T/C,[1],92 % of control
O=c1nc(N2CCCCCCC2)ccn1C1OC(CO)C(O)C1O (centres undefined),T/C,"endpoint: median survival time, dose: 12.5 mg/kg/injection, schedule: Q01DX005 (ip), vehicle: water",98 % of control
same,T/C,"endpoint: median survival time, dose: 25.0 mg/kg/injection, schedule: Q01DX005 (ip), vehicle: water",98 % of control
same,T/C,"endpoint: median survival time, dose: 50.0 mg/kg/injection, schedule: Q01DX005 (ip), vehicle: water",118 % of control
same,T/C,"endpoint: median survival time, dose: 100.0 mg/kg/injection, schedule: Q01DX005 (ip), vehicle: water",112 % of control
same,T/C,"endpoint: median survival time, dose: 200.0 mg/kg/injection, schedule: Q01DX005 (ip), vehicle: water",104 % of control
CNC(=O)OCc1c(COC(=O)NC)c(C)n(-c2ccccc2)c1C,T/C,"endpoint: mean survival time, dose: 6.25 mg/kg/injection, schedule: Q01DX009 (ip), vehicle: Klucel (hydroxypropylcellulose) (HPC)",109 % of control
same,T/C,"endpoint: mean survival time, dose: 12.5 mg/kg/injection, schedule: Q01DX009 (ip), vehicle: Klucel (hydroxypropylcellulose) (HPC)",106 % of control
same,T/C,"endpoint: mean survival time, dose: 25.0 mg/kg/injection, schedule: Q01DX009 (ip), vehicle: Klucel (hydroxypropylcellulose) (HPC)",104 % of control
CC(=O)NCC1(c2ccccc2)CCN(CCCC(=O)c2ccc(F)cc2)CC1,T/C,"endpoint: mean survival time, dose: 25.0 mg/kg/injection, schedule: Q04DX003 (ip), vehicle: Klucel (hydroxypropylcellulose) (HPC)",95 % of control
same,T/C,"endpoint: mean survival time, dose: 50.0 mg/kg/injection, schedule: Q04DX003 (ip), vehicle: Klucel (hydroxypropylcellulose) (HPC)",100 % of control
same,T/C,"endpoint: mean survival time, dose: 100.0 mg/kg/injection, schedule: Q04DX003 (ip), vehicle: Klucel (hydroxypropylcellulose) (HPC)",95 % of control
CC1=CC(=O)C(C(=O)CC(O)(C(F)(F)F)C(F)(F)F)C(=O)O1 (centres undefined),T/C,[4],98 % of control
same,T/C,[5],104 % of control
same,T/C,"endpoint: mean survival time, dose: 400.0 mg/kg/injection, schedule: Q01DX001 (ip), vehicle: saline with Tween-80",95 % of control
CN(C)CCNC(=O)c1ccc(N)cc1,T/C,"endpoint: mean survival time, dose: 100.0 mg/kg/injection, schedule: Q04DX002 (ip), vehicle: saline",102 % of control
same,T/C,"endpoint: mean survival time, dose: 200.0 mg/kg/injection, schedule: Q04DX002 (ip), vehicle: saline",102 % of control
Cl/C=C\C[N+]12CN3CN(CN(C3)C1)C2,T/C,[6],96 % of control
Nc1ccc(S(=O)(=O)F)c(Cl)c1,T/C,[1],97 % of control
same,T/C,[6],95 % of control
same,T/C,[2],100 % of control
same,T/C,[7],101 % of control
same,T/C,[8],95 % of control
O=C1C[C@H]2[C@H](CO)[C@@H](OC(=O)c3ccc(-c4ccccc4)cc3)C[C@H]2O1,T/C,"endpoint: mean survival time, dose: 100.0 mg/kg/injection, schedule: Q01DX001 (ip), vehicle: alcohol",94 % of control
same,T/C,"endpoint: mean survival time, dose: 200.0 mg/kg/injection, schedule: Q01DX001 (ip), vehicle: alcohol",88 % of control
same,T/C,"endpoint: mean survival time, dose: 400.0 mg/kg/injection, schedule: Q01DX001 (ip), vehicle: alcohol",92 % of control
CNC(=O)/C(=C\c1ccccc1)NC(C)=O,T/C,[1],103 % of control
same,T/C,[2],98 % of control
same,T/C,[3],98 % of control
CC[C@@]1(O)C(=O)OCc2c1cc1n(c2=O)Cc2cc3ccccc3nc2-1,T/C,"endpoint: mean survival time, dose: 0.78 mg/kg/injection, schedule: Q04DX003 (ip), vehicle: water",120 % of control
same,T/C,"endpoint: mean survival time, dose: 1.56 mg/kg/injection, schedule: Q04DX003 (ip), vehicle: water",156 % of control
same,T/C,"endpoint: mean survival time, dose: 3.13 mg/kg/injection, schedule: Q04DX003 (ip), vehicle: other",159 % of control
same,T/C,"endpoint: mean survival time, dose: 3.13 mg/kg/injection, schedule: Q04DX003 (ip), vehicle: water",156 % of control
same,T/C,"endpoint: mean survival time, dose: 6.25 mg/kg/injection, schedule: Q04DX003 (ip), vehicle: other",124 % of control
same,T/C,"endpoint: mean survival time, dose: 12.5 mg/kg/injection, schedule: Q04DX003 (ip), vehicle: water",95 % of control
same,T/C,"endpoint: mean survival time, dose: 25.0 mg/kg/injection, schedule: Q04DX003 (ip), vehicle: other",119 % of control
CCOC(=O)N1Cc2cc3ccccc3nc2C1,T/C,"endpoint: mean survival time, dose: 75.0 mg/kg/injection, schedule: Q01DX009 (ip), vehicle: saline with Tween-80",100 % of control
same,T/C,"endpoint: mean survival time, dose: 150.0 mg/kg/injection, schedule: Q01DX009 (ip), vehicle: saline with Tween-80",101 % of control
Cc1ccc(NC(=S)NC(=O)/C=C/c2ccccc2)cc1Cl,T/C,"endpoint: mean survival time, dose: 50.0 mg/kg/injection, schedule: Q04DX002 (ip), vehicle: saline with Tween-80",95 % of control and 97 % of control
same,T/C,"endpoint: mean survival time, dose: 100.0 mg/kg/injection, schedule: Q04DX002 (ip), vehicle: saline with Tween-80",91 % of control and 97 % of control
same,T/C,"endpoint: mean survival time, dose: 200.0 mg/kg/injection, schedule: Q04DX002 (ip), vehicle: saline with Tween-80",93 % of control and 94 % of control
O=C1CN(Cl)C(=O)CN1Cl,T/C,"endpoint: mean survival time, dose: 37.5 mg/kg/injection, schedule: Q04DX002 (ip), vehicle: saline with Tween-80",98 % of control
same,T/C,"endpoint: mean survival time, dose: 75.0 mg/kg/injection, schedule: Q04DX002 (ip), vehicle: saline with Tween-80",98 % of control
same,T/C,"endpoint: mean survival time, dose: 150.0 mg/kg/injection, schedule: Q04DX002 (ip), vehicle: saline with Tween-80",102 % of control
CC(C)(C)NSc1nc2ccccc2s1,T/C,[9],96 % of control
same,T/C,[10],96 % of control
Cc1ccc(/C=N/NC(=O)CNC(=O)Nc2cccc(C(F)(F)F)c2)cc1,T/C,"endpoint: mean survival time, dose: 50.0 mg/kg/injection, schedule: Q01DX009 (ip), vehicle: saline with Tween-80",92 % of control
same,T/C,[1],88 % of control
same,T/C,[2],92 % of control
COc1ccccc1-n1c(O)c(N=Nc2ccccc2)c(=O)n(-c2ccccc2OC)c1=S,T/C,[4],105 % of control
same,T/C,[5],102 % of control
CCOC(=O)CSCc1ccc(C(C)(C)C)cc1,T/C,"endpoint: mean survival time, dose: 100.0 mg/kg/injection, schedule: Q01DX001 (ip), vehicle: saline",96 % of control
same,T/C,"endpoint: mean survival time, dose: 200.0 mg/kg/injection, schedule: Q01DX001 (ip), vehicle: saline",98 % of control
same,T/C,"endpoint: mean survival time, dose: 400.0 mg/kg/injection, schedule: Q01DX001 (ip), vehicle: saline",93 % of control
CC1(c2ccccc2)NC(=O)NC1=O (centres undefined),T/C,"endpoint: mean survival time, dose: 100.0 mg/kg/injection, schedule: Q01DX009 (ip), vehicle: other",98 % of control
same,T/C,[9],94 % of control
same,T/C,"endpoint: mean survival time, dose: 200.0 mg/kg/injection, schedule: Q01DX009 (ip), vehicle: other",97 % of control
same,T/C,[10],97 % of control
same,T/C,"endpoint: mean survival time, dose: 400.0 mg/kg/injection, schedule: Q04DX003 (ip), vehicle: saline with Tween-80",91 % of control
[N-]=[N+]=NCc1cn(C2CC(O)C(CO)O2)c(=O)[nH]c1=O (centres undefined),T/C,"endpoint: mean survival time, dose: 6.25 mg/kg/injection, schedule: Q01DX005 (ip), vehicle: water",91 % of control
same,T/C,"endpoint: mean survival time, dose: 12.5 mg/kg/injection, schedule: Q01DX005 (ip), vehicle: water",111 % of control
same,T/C,"endpoint: mean survival time, dose: 25.0 mg/kg/injection, schedule: Q01DX005 (ip), vehicle: water",103 % of control
same,T/C,"endpoint: mean survival time, dose: 50.0 mg/kg/injection, schedule: Q01DX005 (ip), vehicle: water",100 % of control
